We go through 4 compounds from patent US5569658A, “Tricyclic derivatives” (Zeneca Limited, priority 1993, dated 1996).

In one assay the target is T1, receptor tyrosine kinase (Homo sapiens, UniProt P00533).
T1 construct: Receptor tyrosine kinase was obtained in partially purified form from A-431 cells; endogenous in cells; host or cells: A-431 cells (human vulval carcinoma); partially purified, Triton X-100 solubilised membrane fraction
As to the kind of experiment: in vitro assay: inhibition of the enzyme receptor tyrosine kinase (Test (a)). Conditions: partially purified enzyme from A-431 cells; EGF; peptide substrate, [γ-32P]ATP; 25° C., 10 minutes. Type of assay: biochemical. On the procedure:
(a) An in vitro assay which determines the ability of a test compound to inhibit the enzyme receptor tyrosine kinase. Receptor tyrosine kinase was obtained in partially purified form from A-431 cells (derived from human vulval carcinoma) by procedures related to those described by Carpenter et al., J. Biol. Chem., 1979, 254, 4884, Cohen et al., J. Biol. Chem., 1982, 257, 1523 and by Braun et al., J. Biol. Chem., 1984, 259, 2051.
A-431 cells were grown to confluence using Dulbecco's modified Eagle's medium (DMEM) containing 5% fetal calf serum (FCS). The obtained cells were homogenised in a hypotonic borate/EDTA buffer at pH 10.1. The homogenate was centrifuged at 400 g for 10 minutes at 0°-4° C. The supernatant was centrifuged at 25,000 g for 30 minutes at 0°-4° C. […]
The test compound/EGF mixture solution (5 μl) was added to the test enzyme solution (10 μl) and the mixture was incubated at 0°-4° C. for 30 minutes. […] Radioactivity present in the filter paper was measured using a liquid scintillation counter (Sequence A). […]
Receptor tyrosine kinase inhibition was calculated as follows: [formula]
The extent of inhibition was then determined at a range of concentrations of test compound to give an IC50 value.

The test system of assay [1] is human naso-pharyngeal cancer cell line KB. As to the kind of experiment: in vitro assay: inhibition of growth of the human naso-pharyngeal cancer cell line KB (Test (b)). The assay is classed as cell-based. Conditions: 72 h, EGF (10 ng/ml), 3 days, MTT. The method, then: (b) An in vitro assay which determines the ability of a test compound to inhibit the growth of the human naso-pharyngeal cancer cell line KB.
KB cells were seeded into wells at a density of 1×10^4 -1.5×10^4 cells per well and grown for 24 hours in DMEM supplemented with 5% FCS (charcoal-stripped). Cell growth was determined after incubation for 3 days by the extent of metabolism of MTT tetrazolium dye to furnish a bluish color. Cell growth was then determined in the presence of EGF (10 ng/ml) or in the presence of EGF (10 ng/ml) and a test compound at a range of concentrations. An IC50 value could then be calculated.

A further assay relates to liver hepatocyte. As to the kind of experiment: in vivo assay: inhibition of TGFα-stimulated liver hepatocyte growth in rats (Test (c)). To be noted: TGFα 400 μg/kg subcutaneously; for ED50: Rattus norvegicus, Hepatocyte, male rats, usually oral, approximate ED50, read-out: ED50 in Test (c), inhibition of liver hepatocyte proliferation (BrdU uptake). Also on record: species or system rat. On the procedure:
(c) An in vivo assay in a group of male rats which determines the ability of a test compound (usually administered orally as a ball-milled suspension in 0.5% polysorbate) to inhibit the stimulation of liver hepatocyte growth caused by the administration of the growth factor TGFα (400 μg/kg subcutaneously, usually dosed twice, 3 and 7 hours respectively after the administration of the test compound).
In a control group of rats, the administration of TGFα causes on average a 5-fold stimulation of liver hepatocyte growth.
Cell-growth in the control and test animals is determined as follows:
On the morning of the day after the dosing of the test compound (or 0.5% polysorbate in the control group), the animals are dosed with bromodeoxyuridine (BrdU; 100 mg/kg intraperitoneally). The animals are killed four hours later and the livers are excised. […] Further tests were carried out using a range of doses of the test compounds to allow the calculation of an approximate ED50 value for the inhibition of liver hepatocyte proliferation as determined by inhibition of the uptake of BrdU.

Assay [2] concerns human mammary carcinoma which expresses epidermal growth factor (EGF) receptor tyrosine kinase. To be noted: athymic nude mice; Toi et al., 1990; cited from earlier work.
Assay [3] deals with another carcinoma which does not express EGF receptor tyrosine kinase. To be noted: Toi et al., 1990; cited from earlier work.

T1 sequence (P00533 25-1210): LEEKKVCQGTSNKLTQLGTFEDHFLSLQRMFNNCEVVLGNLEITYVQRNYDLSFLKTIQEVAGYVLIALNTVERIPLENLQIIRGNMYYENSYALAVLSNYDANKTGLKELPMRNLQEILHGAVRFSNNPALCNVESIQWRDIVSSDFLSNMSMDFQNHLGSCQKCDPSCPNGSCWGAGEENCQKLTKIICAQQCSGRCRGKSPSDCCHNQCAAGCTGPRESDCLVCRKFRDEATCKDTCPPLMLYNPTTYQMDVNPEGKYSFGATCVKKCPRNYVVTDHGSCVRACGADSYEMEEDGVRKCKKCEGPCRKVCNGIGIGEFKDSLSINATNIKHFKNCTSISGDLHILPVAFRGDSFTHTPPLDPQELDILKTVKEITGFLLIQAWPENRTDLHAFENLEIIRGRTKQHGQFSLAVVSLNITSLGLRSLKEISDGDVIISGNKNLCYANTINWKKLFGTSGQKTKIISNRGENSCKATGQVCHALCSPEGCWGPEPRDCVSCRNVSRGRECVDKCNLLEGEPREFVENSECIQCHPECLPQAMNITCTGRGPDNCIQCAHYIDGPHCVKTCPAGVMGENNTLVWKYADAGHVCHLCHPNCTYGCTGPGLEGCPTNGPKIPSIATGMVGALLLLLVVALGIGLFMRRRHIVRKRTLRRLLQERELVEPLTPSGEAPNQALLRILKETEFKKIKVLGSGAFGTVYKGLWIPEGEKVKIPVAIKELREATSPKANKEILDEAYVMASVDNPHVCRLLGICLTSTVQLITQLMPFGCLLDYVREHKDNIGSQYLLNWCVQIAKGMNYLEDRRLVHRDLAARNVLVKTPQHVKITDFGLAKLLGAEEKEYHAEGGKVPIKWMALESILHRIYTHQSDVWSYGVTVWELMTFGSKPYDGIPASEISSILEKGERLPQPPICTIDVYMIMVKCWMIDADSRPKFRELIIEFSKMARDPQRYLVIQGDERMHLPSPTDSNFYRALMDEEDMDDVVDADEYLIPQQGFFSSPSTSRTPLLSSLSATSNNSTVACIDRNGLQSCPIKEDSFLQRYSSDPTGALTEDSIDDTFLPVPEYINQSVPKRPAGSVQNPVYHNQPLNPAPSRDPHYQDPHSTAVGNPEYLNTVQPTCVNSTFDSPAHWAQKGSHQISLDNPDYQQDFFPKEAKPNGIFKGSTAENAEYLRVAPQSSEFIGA

`Cc1cccc(Nc2ncnc3cc4c(cc23)ncn4C)c1` [3-methyl-8-(3'-methylanilino)-3H-imidazo[4,5-g]-quinazoline]: the figures for the IC50 (against receptor tyrosine kinase; in assay [1]) were 35 nM and 970 nM, respectively. Further, the ED50 in the assay on liver hepatocyte was below 5 mg/kg.

Regarding `Cc1cccc(Nc2ncnc3cc4c(cc23)[nH]c(=O)n4C)c1` [3-methyl-8-(3'-methylanilino)-1,2-dihydro-3H-imidazo[4,5-g]quinazolin-2-one], the IC50 on receptor tyrosine kinase stood at 16 nM; in assay [1], 1190 nM. The ED50 with liver hepatocyte was below 12.5 mg/kg.

For the compound TGFα: the growth factor TGFα, in the assay on liver hepatocyte (control group of rats, on average), the “stimulation of liver hepatocyte growth” value was ~5 -fold.

In the case of `O=CN/C=C/c1cc(O)ccc1O` [erbstatin], the “effect on tumour growth, carcinoma expressing EGF receptor tyrosine kinase” value in assay [2] was “specifically attenuates the growth”. The “effect on tumour growth, carcinoma not expressing EGF receptor tyrosine kinase” value in assay [3] is “without effect”.

What is called IC50 is the concentration that inhibits the measured activity by half. Read a low IC50 as greater potency in that assay.
